# Assay results as given in ChEMBL document CHEMBL1152457, “Antimicrobial drug resistance of Salmonella enterica serovar typhi in asia and molecular mechanism of reduced susceptibility to the fluoroquinolones” (2007).
# The source made the active and inactive calls. The calls are words filed in the database; no cut-off is given here.
# Tests used:
# [1] = test system: Salmonella enterica subsp. enterica; test: Antimicrobial activity against multidrug-resistant Salmonella enterica Serovar Typhi isolate DT49 harboring DNA gyrase A S83F mutation by disk diffusion method; type: functional, Salmonella enterica subsp. enterica serovar Typhi
# [2] = test system: Salmonella enterica subsp. enterica; test: Antimicrobial activity against multidrug-resistant Salmonella enterica Serovar Typhi isolate HTD 798 harboring DNA gyrase A S83F mutation assessed as decrease in viable count at 4 times MIC after 4 hrs by time-kill analysis; type: functional, organism-based
# [3] = test system: Salmonella enterica subsp. enterica; test: Antimicrobial activity against Salmonella enterica Serovar Typhi isolate BL 21801 harboring DNA gyrase A S83F mutation by disk diffusion method in presence of plasmid mediated quinolone-resistant gene qnrA and qnrS; type: functional, Salmonella enterica subsp. enterica serovar Typhi
# [4] = test system: Salmonella enterica subsp. enterica; test: Antimicrobial activity against multidrug-resistant Salmonella enterica Serovar Typhi isolate AG168 harboring DNA gyrase A S83F mutation by disk diffusion method; type: functional, Salmonella enterica subsp. enterica serovar Typhi
# [5] = test system: Salmonella enterica subsp. enterica; test: Antimicrobial activity against multidrug-resistant Salmonella enterica Serovar Typhi isolate DT54 harboring DNA gyrase A S83F mutation by disk diffusion method; type: functional, Salmonella enterica subsp. enterica serovar Typhi
# [6] = test system: Salmonella enterica subsp. enterica; test: Antimicrobial activity against multidrug-resistant Salmonella enterica Serovar Typhi isolate CT29 harboring DNA gyrase A S83F mutation by disk diffusion method in presence of plasmid mediated quinolone-resistant gene qnrA and qnrS; type: functional, Salmonella enterica subsp. enterica serovar Typhi
# [7] = test system: Salmonella enterica subsp. enterica; test: Antimicrobial activity against Salmonella enterica Serovar Typhi isolate CT144 harboring DNA gyrase A D87G mutation assessed as decrease in viable count at 4 times MIC after 4 hrs by time-kill analysis; type: functional, organism-based
# [8] = test system: Salmonella enterica subsp. enterica; test: Antimicrobial activity against multidrug-resistant Salmonella enterica Serovar Typhi isolate nar 51 harboring DNA gyrase A S83F mutation by disk diffusion method; type: functional, Salmonella enterica subsp. enterica serovar Typhi
# [9] = test system: Salmonella enterica subsp. enterica; test: Antimicrobial activity against multidrug-resistant Salmonella enterica Serovar Typhi isolate ipt 32 harboring DNA gyrase A S83F mutation by disk diffusion method; type: functional, Salmonella enterica subsp. enterica serovar Typhi
# [10] = test system: Salmonella enterica subsp. enterica; test: Antimicrobial activity against Salmonella enterica Serovar Typhi isolate CT76 harboring wild type DNA gyrase A by time-kill analysis; type: functional, organism-based
# [11] = test system: Salmonella enterica subsp. enterica; test: Antimicrobial activity against Salmonella enterica Serovar Typhi isolate AG259 harboring DNA gyrase A S83F mutation by disk diffusion method in presence of plasmid mediated quinolone-resistant gene qnrA and qnrS; type: functional, Salmonella enterica subsp. enterica serovar Typhi
# [12] = test system: Salmonella enterica subsp. enterica; test: Antimicrobial activity against multidrug-resistant Salmonella enterica Serovar Typhi isolate DT18 harboring DNA gyrase A S83F and D87G mutation assessed as decrease in viable count at 4 times MIC after 4 hrs by time-kill analysis; type: functional, organism-based
# [13] = test system: Salmonella enterica subsp. enterica; test: Antimicrobial activity against multidrug-resistant Salmonella enterica Serovar Typhi isolate BL 21095 harboring DNA gyrase A S83F mutation by disk diffusion method in presence of plasmid mediated quinolone-resistant gene qnrA and qnrS; type: functional, Salmonella enterica subsp. enterica serovar Typhi
# [14] = test system: Salmonella enterica subsp. enterica; test: Antimicrobial activity against Salmonella enterica Serovar Typhi isolate CT144 harboring DNA gyrase A D87G mutation assessed as complete cell killing at 4 times MIC after 4 hrs by time-kill analysis; type: functional, organism-based
# [15] = test system: Salmonella enterica subsp. enterica; test: Antimicrobial activity against Salmonella enterica Serovar Typhi isolate CT145 harboring DNA gyrase A S83F mutation by disk diffusion method in presence of plasmid mediated quinolone-resistant gene qnrA and qnrS; type: functional, Salmonella enterica subsp. enterica serovar Typhi
# [16] = test system: Salmonella enterica subsp. enterica; test: Antimicrobial activity against multidrug-resistant Salmonella enterica Serovar Typhi isolate AG15 harboring DNA gyrase A S83F mutation by disk diffusion method; type: functional, Salmonella enterica subsp. enterica serovar Typhi
# [17] = test system: Salmonella enterica subsp. enterica; test: Antimicrobial activity against multidrug-resistant Salmonella enterica Serovar Typhi isolate B111 harboring DNA gyrase A S83Y mutation by disk diffusion method in presence of plasmid mediated quinolone-resistant gene qnrA and qnrS; type: functional, Salmonella enterica subsp. enterica serovar Typhi
# [18] = test system: Salmonella enterica subsp. enterica; test: Antimicrobial activity against multidrug-resistant Salmonella enterica Serovar Typhi isolate HTD 798 harboring DNA gyrase A S83F mutation assessed as complete cell killing at 4 times MIC after 4 hrs by time-kill analysis; type: functional, organism-based
# [19] = test system: Salmonella enterica subsp. enterica; test: Antimicrobial activity against Salmonella enterica Serovar Typhi isolate CT142 harboring DNA gyrase A S83F mutation by disk diffusion method in presence of plasmid mediated quinolone-resistant gene qnrA and qnrS; type: functional, Salmonella enterica subsp. enterica serovar Typhi
# [20] = test system: Salmonella enterica subsp. enterica; test: Antimicrobial activity against multidrug-resistant Salmonella enterica Serovar Typhi isolate AG8 harboring DNA gyrase A S83F mutation by disk diffusion method; type: functional, Salmonella enterica subsp. enterica serovar Typhi
# [21] = test system: Salmonella enterica subsp. enterica; test: Antimicrobial activity against multidrug-resistant Salmonella enterica Serovar Typhi isolate AG176 harboring DNA gyrase A S83F mutation by disk diffusion method; type: functional, Salmonella enterica subsp. enterica serovar Typhi
# [22] = test system: Salmonella enterica subsp. enterica; test: Antimicrobial activity against multidrug-resistant Salmonella enterica Serovar Typhi isolate HTD 798 harboring DNA gyrase A S83F mutation assessed as decrease in bacterial population at 4 times MIC after 30 mins by time-kill analysis; type: functional, organism-based
# [23] = test system: Salmonella enterica subsp. enterica; test: Antimicrobial activity against Salmonella enterica Serovar Typhi isolate CT144 harboring DNA gyrase A D87G mutation assessed as decrease in bacterial population at 4 times MIC after 30 mins by time-kill analysis; type: functional, organism-based
# [24] = test system: Salmonella enterica subsp. enterica; test: Antimicrobial activity against Salmonella enterica Serovar Typhi isolate CT76 harboring wild type DNA gyrase A assessed as decrease in bacterial population at 4 times MIC after 30 mins by time-kill analysis; type: functional, organism-based
# [25] = test system: Salmonella enterica subsp. enterica; test: Antimicrobial activity against multidrug-resistant Salmonella enterica Serovar Typhi isolate DT18 harboring DNA gyrase A S83F and D87G mutation assessed as decrease in viable count at 8 times MIC after 4 hrs by time-kill analysis; type: functional, organism-based
# [26] = test system: Salmonella enterica subsp. enterica; test: Antimicrobial activity against Salmonella enterica Serovar Typhi isolate CT144 harboring DNA gyrase A D87G mutation assessed as complete cell killing at 4 times MIC after 6 hrs by time-kill analysis; type: functional, organism-based
# [27] = test system: Salmonella enterica subsp. enterica; test: Antimicrobial activity against multidrug-resistant Salmonella enterica Serovar Typhi isolate HTD 798 harboring DNA gyrase A S83F mutation assessed as complete cell killing at 4 times MIC after 6 hrs by time-kill analysis; type: functional, organism-based
# [28] = test system: Salmonella enterica subsp. enterica; test: Antimicrobial activity against multidrug-resistant Salmonella enterica Serovar Typhi isolate DT18 harboring DNA gyrase A S83F and D87G mutation assessed as decrease in viable count at 16 times MIC after 4 hrs by time-kill analysis; type: functional, organism-based
# [29] = test system: Salmonella enterica subsp. enterica; test: Antimicrobial activity against Salmonella enterica Serovar Typhi isolate CT76 harboring wild type DNA gyrase A assessed as complete cell killing at 4 times MIC after 6 hrs by time-kill analysis; type: functional, organism-based
Compound,MIC [1] [µg/mL],MIC [3] [µg/mL],MIC [4] [µg/mL],MIC [5] [µg/mL],MIC [6] [µg/mL],MIC [8] [µg/mL],MIC [9] [µg/mL],MIC [11] [µg/mL],MIC [13] [µg/mL],MIC [15] [µg/mL],MIC [16] [µg/mL],MIC [17] [µg/mL],MIC [19] [µg/mL],MIC [20] [µg/mL],MIC [21] [µg/mL],also measured
CC1COc2c(N3CCN(C)CC3)c(F)cc3c(=O)c(C(=O)O)cn1c23 (centres undefined) [OFLOXACIN],1,0.5,1,1,1,1,1,1.5,0.5,0.5,1.5,0.5,1,1.5,0.75,Activity [2]: Active; Activity [7]: Active; Activity [10]: Active; Activity [12]: inactive; Activity [14]: inactive; Activity [18]: inactive
CCn1cc(C(=O)O)c(=O)c2ccc(C)nc21 [NALIDIXIC ACID],> 256,> 256,> 256,> 256,256,256,256,> 256,> 256,128,> 256,> 256,> 256,> 256,> 256,
COc1c(N2CCNC(C)C2)c(F)cc2c(=O)c(C(=O)O)cn(C3CC3)c12 (centres undefined) [GATIFLOXACIN],0.125,0.19,0.13,0.125,0.094,0.125,0.125,0.13,0.19,0.094,0.13,0.19,0.125,0.19,0.09,Activity [22]: Active; Activity [23]: Active; Activity [24]: Active; Activity [25]: Active; Activity [26]: Active; Activity [27]: Active; Activity [28]: Active; Activity [29]: Active
O=C(O)c1cn(C2CC2)c2cc(N3CCNCC3)c(F)cc2c1=O [CIPROFLOXACIN],0.5,0.25,0.38,0.5,0.5,0.5,0.5,0.38,0.25,0.38,0.5,0.25,0.38,0.5,0.25,
